Legend:
IL-6 = assay: Synovial tissue assay (spontaneous production): IL-6; format: cell-based; conditions: Homo sapiens, synovial tissue cells from rheumatoid arthritis patients, 16 h, read-out: IC50 of IL-6 inhibition
From the text: The ability of compounds of the present invention to inhibit spontaneous production of cytokines from freshly isolated human synovial tissue cells was designed as in reference, Lancet, 29, 244-247, (1989) the disclosure of which is incorporated by reference for the teaching of the assay.
Synovial tissue was obtained from rheumatoid arthritis patients undergoing knee replacement surgery. […] Subsequently, the cells were washed 3 times with RPMI 1640 culture medium and resuspended in complete medium (RPMI 1640 culture medium supplemented with 5% FBS and 5% human serum-AB+(Sigma, USA) at a concentration of 1×10^6 cells/mL. The viability of synovial cells was determined by trypan blue dye exclusion and was uniformly ≧98%. For the experiment, 100 μL of cell suspension was added to the wells of a 96-well culture plate (Nunc, USA). Following cell plating, 100 μL of the culture medium and 1 μL of various concentrations of the test compound (test compound was dissolved in DMSO to obtain a stock solution of 20 mM. […] The IC50 values were calculated by a nonlinear regression method using the GraphPad software (Prism 3.03).

[1] = test system: DBA/1J mice with collagen induced arthritis; assay: Collagen-induced arthritis in mice; format: in vivo
Protocol: The experiment was designed as in reference, J. Experimental Medicine, 162, 637-646 (1985), the disclosure of which is incorporated by reference for the teaching of the experiment.
Male DBA/1J mice with body weight range of 18-22 g, aged 8-10 weeks were immunized with an emulsion equivalent to 200 μg of type II collagen (Elastin products, USA) in Freund's Complete Adjuvant (Sigma, USA), injected intradermally at the base of the tail. The animals were boosted with 200 μg of freshly prepared typeII collagen emulsion emulsified in Freund's Complete Adjuant (Sigma, USA) on day 21. A group of naïve mice was also maintained alongside. Naïve animals are the animals which are neither immunized for induction of arthritis nor do they receive any treatment. This group is maintained to take care of the normal changes in the paw thickness with age.
From day 23, mice were examined daily once for the signs of rheumatoid arthritis, using the articular index and paw thickness as parameters. Articular index scoring was performed employing the following criteria:
• 0: No redness or swelling • 1: Redness, but no swelling • 2: Redness and swelling of the paw • 3: Redness and severe swelling of the paw Hind limbs: Scale 0-4 • 0: No redness or swelling • 1: Redness and mild swelling of paw • 2: Redness and moderate swelling of paw and/or swelling of at least one of the digits • 3: Redness and moderate/severe swelling of paw, swelling of ankle joint and/or swelling of one or more digits • 4: Redness and severe swelling of paw, digits and ankle joint, with joint stiffness Mice with a minimum hind paw score of 2, of even one paw, were inducted into the study. Mice were randomized into the various study groups, each group having at least eight animals, and were administered the vehicle (0.5% CMC, 10 mL/kg p.o. and s.c. twice daily), the test compound (5 mg/kg, p.o. and s.c., twice daily) and standard compound Enbrel (Wyeth Limited, UK), 3 mg/kg, s.c., once daily. The test compound was administered as a suspension in CMC. The requisite quantity of the compound was accurately weighed and was hand-pulverized using pestle-mortar. After mixing with minimum quantity of Tween 80 necessary to wet the compound, requisite quantity of 0.5% CMC solution was added and the compound was ground with CMC till the uniform suspension was obtained. Standard compound ‘Enbrel’ was used as an aqueous solution. The dosing of the compounds was done for 12 continuous days.
The following parameters were observed and recorded daily, • 1. Body weight • 2. Articular index • 3. Paw thickness of hind limbs only, in mm using a tension free calipers • 4. Any significant observation regarding the condition of the animals.
On 13th day morning, 1 h after the compound treatment, the animals were sacrificed, blood withdrawn, and plasma collected for drug level analyses. Also, the hind limbs of all the animals were preserved for histopathological evaluations.

IFN-γ = assay: Concanavalin-A-induced IFN-γ production from hPBMC; format: cell-based; conditions: Homo sapiens; Con-A-induced production from hPBMCs, 18 h
Protocol: Peripheral blood mononuclear cells (hPBMC) were harvested using Ficoll-Hypaque density gradient centrifugation (1.077 g/mL; Sigma Aldrich). hPBMCs were resuspended in RPMI 1640 culture medium (Gibco BRL, Pasley, UK) containing 10% FCS, 100 U/mL penicillin (Sigma Chemical Co. St Louis, Mo.) and […] streptomycin (Sigma Chemical Co. St Louis, Mo.) at 1×10^6 cells/mL. 1×10^5 hPBMCs/well were pre-treated with test compound or 0.5% DMSO (carrier control) for 30 min at 37° C. Subsequently, these cells were stimulated with 1 μg/mL concanavalin A (Sigma Chemical Co., St. Louis, Mo.). Following 18 h incubation at 37° C., supernatants were collected and stored at −70° C. until assayed for human IFN-γ by ELISA as described by the manufacturer (OptiEIA ELISA sets, BD BioSciences). In each experiment, cyclosporin (1 μM) was used as a positive control for inhibiting induced IFN-γ production.

With `C/C=C/C(O)C(C)/C=C/C(=N\O)C(C)C(O)C(C)C1OC(=O)/C(OC)=C/C(C)=C/C(C)C(O)C(CC)C(O)C(C)C/C(C)=C/C=C/C1OC` (stereo not drawn) [Compound of example 7, (3Z,5E,13E,15E)-18-((5Z,6E,10E)-3,9-Dihydroxy-5-(hydroxymino)-4,8-dimethyldodeca-6,10-dien-2-yl)-9-ethyl-8,10-dihydroxy-3,17-dimethoxy-5,7,11,13-tetramethyl oxacyclooctadeca-3,5,13,15-tetraen-2-one] the IC50 (IL-6) was 300 nM, the severity of arthritis ([1]; 5.0 mg/kg CMC suspension, subcutaneously twice daily, 12 days) was “reduced the severity of arthritis” and the “benefit compared with Enbrel” value ([1]; 5.0 mg/kg s.c. twice daily vs Enbrel 3 mg/kg, s.c., once daily) was “equal to that achieved with Enbrel treatment”. For the same molecule, the “arthritic changes of joints (histopathology observations)” value ([1]; 5 mg/kg, s.c.) was “showed protection against arthritic changes with absence of hyperplasia of synovium”, the “Histological score of the section of paws” value ([1]; compound of example 7 5 mg/kg, s.c., n=10, Enbrel 3 mg/kg, s.c., n=6, vehicle control 15.14+1.0) was 3.6+1.54 and the IC50 (IFN-γ) was 0.2 µM.

— patent US20120225889A1, “USE OF MACROCYCLIC LACTONE DERIVATIVES FOR THE TREATMENT OF INFLAMMATORY DISORDERS” (PIRAMAL LIFE SCIENCES LIMITED, priority 2010, published 2012)
